Results published in patent publication US20240059710A1, “KRAS G12D Inhibitors” (Jacobio Pharmaceuticals Co., Ltd., priority 2020, published 2024).

How the values were obtained:
[1] = biological target: T1, GppNp-loaded HIS-KRAS (G12D, aa 1-169) / cRAF RBD (Homo sapiens, UniProt P01116, G12D); assay: GTP-KRAS and cRAF interaction assay; format: binding; conditions: HTRF, 2 hours at 25° C.
T1 construct: GppNp-loaded HIS-KRAS (G12D, aa 1-169)
Method: 2. GTP-KRAS and cRAF Interaction Assay
GppNp-loaded HIS-KRAS (G12D, aa 1-169) was pre-incubated with a compound in the presence of 200 µM GTP in a 384-well plate (Greiner) for 15 min, then cRAF RBD (GST tag, aa 50-132, CreativeBioMart), MAb Anti GST-d2 (Cisbio) and MAb Anti 6HIS-Tb cryptate Gold (Cisbio) were added to the assay wells (Final concentration: 2.0 nM GppNp-loaded HIS-KRAS (G12D), 100 μM GTP, 35 nM cRAF RBD, 1 μg/mL MAb Anti GST-d2, 52.5 ng/mL MAb Anti 6HIS-Tb cryptate Gold) and incubated for 2 hours at 25° C. Wells containing same percent of DMSO served as vehicle control, and wells without KRAS served as low control. HTRF signals were read on Tecan Spark multimode microplate reader and HTRF ratios were calculated under manufacturer's instructions. The percent of activation of compounds treated wells were normalized between vehicle control and low control (% Activation=(HTRF ratioCompound treated−HTRF ratioLow control)/(HTRF ratioVehicle control−HTRF ratioLow control)*100). Then the data were analyzed either by fitting a 4-parameter logistic model or by Excel to calculate IC50 values.

[2] = biological target: T2, GDP-loaded HIS-KRAS (G12D, aa 1-169) (Homo sapiens, UniProt P01116, G12D); assay: SOS1 catalyzed nucleotide exchange assay; format: biochemical; conditions: SOS1 ExD, TR-FRET, 4 hours at 25° C.
T2 construct: GDP-loaded HIS-KRAS (G12D, aa 1-169)
T2 sequence (P01116 1-169 isoform P01116-2 G12D): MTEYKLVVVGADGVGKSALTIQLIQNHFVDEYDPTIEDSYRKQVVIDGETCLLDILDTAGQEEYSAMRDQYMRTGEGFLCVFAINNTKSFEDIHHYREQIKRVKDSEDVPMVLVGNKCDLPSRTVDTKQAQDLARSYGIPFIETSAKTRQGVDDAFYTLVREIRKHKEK
Method: 1. SOS1 Catalyzed Nucleotide Exchange Assay
GDP-loaded HIS-KRAS (G12D, aa 1-169) was pre-incubated with a compound in the presence of 10 nM GDP in a 384-well plate (Greiner) for 15 min, then purified SOS1 ExD (Flag tag, aa 564-1049), BODIPY™ FL GTP (Invitrogen) and MAb (monoclonal antibody) Anti 6HIS-Tb cryptate Gold (Cisbio) were added to the assay wells (Final concentration: 1.5 nM GDP-loaded HIS-KRAS (G12D), 5 nM GDP, 0.5 μM SOS1 ExD, 80 nM BODIPY™ FL GTP, 52.5 ng/mL MAb Anti 6HIS-Tb cryptate Gold) and incubated for 4 hours at 25° C. Wells containing same percent of DMSO served as vehicle control, and wells without KRAS served as low control. TR-FRET signals were read on Tecan Spark multimode microplate reader. The parameters were F486: Excitation 340 nm, Emission 486 nm, Lag time 100 μs, Integration time 200 μs; F515: Excitation 340 nm, Emission 515 nm, Lag time 100 μs, Integration time 200 μs. TR-FRET ratios for each individual wells were calculated by equation: TR-FRET ratio=(Signal F515/Signal F486)*10000. The percent of activation of compounds treated wells were normalized between vehicle control and low control (% Activation=(TR-FRET ratioCompound treated−TR-FRET ratioLow control)/(TR-FRET ratioVehicle control−TR-FRET ratioLow control)*100%). Then the data were analyzed either by fitting a 4-parameter logistic model or by Excel to calculate IC50 values.

T1 sequence (P01116 1-169 isoform P01116-2 G12D): as above

Row | Compound | IC50 [1] [µM] | IC50 [2] [µM]
1 | C#Cc1cccc2cc(O)cc(-c3c(SC(F)(F)F)cc4c(N5CC6CCC(C5)N6)nc(OCC5(CN6CCOCC6)CC5)nc4c3F)c12 (single isomer, unassigned) [Compound 59A] | > 1 | > 0.1
2 | C#Cc1c(F)ccc2cccc(-c3ccc4c(N5CC6CCC(C5)N6)nc(OCC5(CN6CCOCC6)CC5)nc4c3F)c12 [Compound 93] | 2.18 | 0.0932
3 | CCc1cccc2cc(O)cc(-c3c(Cl)cc4c(N5CC6CCC(C5)N6)nc(OCC5(CN6CCOCC6)CC5)nc4c3F)c12 [Compound 36] | – | 0.0328
4 | C#Cc1cccc2cc(O)cc(-c3c(F)cc4c(N5CC6CCC(C5)N6)nc(OCC5(CN6CCOCC6)CC5)nc4c3F)c12 (single isomer, unassigned) [Compound 41A] | 0.417 | 0.12
5 | C#Cc1cccc2cc(O)cc(-c3c(Cl)cc4c(N5CC6CCC(C5)N6)nc(OCC5(CN6CCOCC6)CC5)nc4c3F)c12 (single isomer, unassigned) [Compound 35A] | – | 0.651
6 | C#Cc1c(F)ccc2cc(O)cc(-c3c(Cl)cc4c(N5CC6CCC(C5)N6)nc(OCC5(CN6CCOCC6)CC5)nc4c3F)c12 (single isomer, unassigned) [Compound 99B] | 0.0135 | 0.000403
7 | Oc1cc(Cl)c(C(F)(F)F)c(-c2c(Cl)cc3c(N4CC5CCC(C4)N5)nc(OC[C@@]45CCCN4C[C@H](F)C5)nc3c2F)c1 [Compound 84] | 0.325 | 0.0354
8 | CCc1cccc2cc(O)cc(-c3c(C4CC4)cc4c(N5CC6CCC(C5)N6)nc(OCC5(CN6CCOCC6)CC5)nc4c3F)c12 [Compound 39] | 1.41 | 0.322
9 | C#Cc1cccc2cc(O)cc(-c3ccc4c(N5CCNCC5CC#N)nc(OCC5(CN6CCOCC6)CC5)nc4c3F)c12 (racemic) [Compound 134] | 0.76 | 0.117
10 | C#Cc1cccc2cc(O)cc(-c3c(Cl)cc4c(N5CC6CCC(C5)N6)nc(OCC5(CN6CCOCC6)CC5)nc4c3Cl)c12 (single isomer, unassigned) [Compound 107A] | > 10 | 0.783
11 | C#Cc1cccc2cc(O)cc(-c3ccc4c(N5[C@H]6CN[C@H](C6)[C@H]5CC#N)nc(OCC5(CN6CCOCC6)CC5)nc4c3F)c12 [Compound 128] | 0.519 | > 0.1
12 | C#Cc1cccc2cc(O)cc(-c3c(C4CC4)cc4c(N5CC6CCC(C5)N6)nc(OCC5(CN6CCOCC6)CC5)nc4c3F)c12 (single isomer, unassigned) [Compound 38A] | 8.3 | ~1
13 | C#Cc1cccc2cc(O)cc(-c3c(Cl)cc4c(N5CC6CCC(C5)N6)nc(OC[C@@]56CCCN5C[C@H](F)C6)nc4c3F)c12 (single isomer, unassigned) [Compound 72A] | 1.48 | 0.0859
14 | Oc1cc(-c2c(Cl)cc3c(N4CC5CCC(C4)N5)nc(OCC4(CN5CCOCC5)CC4)nc3c2F)c2c(Cl)cccc2c1 [Compound 37] | – | 0.0514
15 | C#Cc1c(F)ccc2cc(O)cc(-c3c(Cl)cc4c(N5CC6CCC(C5)N6)nc(OCC5(CN6CCOCC6)CC5)nc4c3F)c12 (single isomer, unassigned) [Compound 99A] | 2.07 | 0.101
16 | C#Cc1cccc2cc(O)cc(-c3ccc4c(N5C6CNCC5C6)nc(OCC5(CN6CCOCC6)CC5)nc4c3F)c12 [Compound 56] | 1.91 | 0.146
17 | C#Cc1cccc2cc(O)cc(-c3c(C)cc4c(N5CC6CCC(C5)N6)nc(OCC5(CN6CCOCC6)CC5)nc4c3F)c12 (single isomer, unassigned) [Compound 40A] | 1.61 | 0.0921
18 | Oc1cc(-c2c(Cl)cc3c(N4CC5CCC(C4)N5)nc(OCC4(CN5CCOCC5)CC4)nc3c2F)c2cccc(F)c2c1 [Compound 92] | 3.96 | 0.152
19 | C#Cc1cccc2cc(O)cc(-c3ccc4c(N5CCNC[C@H]5C)nc(OCC5(CN6CCOCC6)CC5)nc4c3F)c12 [Compound 82] | > 1 | –
